The target of test [1] is T1, von Hippel-Lindau disease tumor suppressor/Son of sevenless homolog 1 (Homo sapiens) (UniProt Q07889+P40337). The test is described as follows: PROTAC activity at VHL/SOS1 in human ASPC1 cells harboring KRAS G12D mutant assessed as induction of SOS1 degradation at 1 uM preincubated with MG132 for 4 hrs followed by compound treatment and measured after 24 hrs by immunoblot analysis. The test is classed as cell-based.

Test [2] addresses T1, von Hippel-Lindau disease tumor suppressor/Son of sevenless homolog 1 (Homo sapiens). The test is described as follows: PROTAC activity at VHL/SOS1 in human ASPC1 cells harboring KRAS G12D mutant assessed as induction of SOS1 degradation at 1 uM preincubated with VHL ligand for 4 hrs followed by compound treatment and measured after 24 hrs by immunoblot analysis. The test is classed as cell-based. On the technique in general: In western blotting, separated proteins are transferred to a membrane and probed.

The target is the same in test [3]. The test is described as follows: PROTAC activity at VHL/SOS1 in human SNU-C2B cells harboring KRAS G12D mutant assessed as induction of SOS1 degradation by measuring maximal efficacy at 1 to 2000 nM incubated for 24 hrs by Immunoblot analysis relative to control. It counts as cell-based. The settings on record: dose 1-2000 nM.
The target is the same in test [4]. Nature of the test: In vivo PROTAC activity at VHL/SOS1 in human ASPC1 cells harboring KRAS G12D mutant xenografted BALB/c nude mouse assessed as decrease in phosphorylated ERK expression at 10 to 20 mg/kg, ip administered once daily for 3 weeks by immunohistochemistry analysis. It counts as functional, organism-based. Particulars: dose 10-20 mg/kg. For orientation: In xenograft studies the graft and the host belong to different species.

Test [5] has the same target. The test is described as follows: In vivo PROTAC activity at VHL/SOS1 in human ASPC1 cells harboring KRAS G12D mutant xenografted BALB/c nude mouse assessed as decrease in phosphorylated ERK expression at 10 to 20 mg/kg, ip administered once daily for 3 weeks by Immunoblot analysis. The test is classed as functional, organism-based. The settings on record: dose 10-20 mg/kg.

Test [6] has the same target. The test is described as follows: PROTAC activity at VHL/SOS1 in human CAL-62 cells harboring KRAS G12R mutant assessed as induction of SOS1 degradation by measuring maximal efficacy at 1 to 2000 nM incubated for 24 hrs by Immunoblot analysis relative to control. It counts as cell-based. The settings on record: dose 1-2000 nM.
The target is the same in test [7]. Nature of the test: PROTAC activity at VHL/SOS1 in human NCI-H460 cells harboring KRAS Q61H mutant assessed as induction of SOS1 degradation by measuring maximal efficacy at 1 to 2000 nM incubated for 24 hrs by Immunoblot analysis relative to control. It counts as cell-based. Particulars: dose 1-2000 nM.
Test [8] shares this target. The test is described as follows: PROTAC activity at VHL/SOS1 in human Lovo cells harboring KRAS G13D mutant assessed as induction of SOS1 degradation by measuring maximal efficacy at 1 to 2000 nM incubated for 24 hrs by Immunoblot analysis relative to control. It counts as cell-based. Particulars: dose 1-2000 nM.
A further test has as its system SW-620. Nature of the test: Antitumor activity against human SW620 cells harboring KRAS G12V mutant xenografted in BALB/c nude mouse assessed as tumor growth inhibition at 10 mg/kg, ip administered once daily for 2 weeks relative to control. It counts as functional. The settings on record: SW-620, 336 h, read-out: TGI.
Test [9] deals with T1, von Hippel-Lindau disease tumor suppressor/Son of sevenless homolog 1 (Homo sapiens). The test is described as follows: PROTAC activity at VHL/SOS1 in human NCI-H358 cells harboring KRAS G12C mutant assessed as induction of SOS1 degradation at 1 uM preincubated with VHL ligand for 4 hrs followed by compound treatment and measured after 24 hrs by Immunoblot analysis. The test is classed as cell-based.

In test [10] the target is T2, Son of sevenless homolog 1 (Homo sapiens, UniProt Q07889).
T2 sequence (Q07889 whole entry): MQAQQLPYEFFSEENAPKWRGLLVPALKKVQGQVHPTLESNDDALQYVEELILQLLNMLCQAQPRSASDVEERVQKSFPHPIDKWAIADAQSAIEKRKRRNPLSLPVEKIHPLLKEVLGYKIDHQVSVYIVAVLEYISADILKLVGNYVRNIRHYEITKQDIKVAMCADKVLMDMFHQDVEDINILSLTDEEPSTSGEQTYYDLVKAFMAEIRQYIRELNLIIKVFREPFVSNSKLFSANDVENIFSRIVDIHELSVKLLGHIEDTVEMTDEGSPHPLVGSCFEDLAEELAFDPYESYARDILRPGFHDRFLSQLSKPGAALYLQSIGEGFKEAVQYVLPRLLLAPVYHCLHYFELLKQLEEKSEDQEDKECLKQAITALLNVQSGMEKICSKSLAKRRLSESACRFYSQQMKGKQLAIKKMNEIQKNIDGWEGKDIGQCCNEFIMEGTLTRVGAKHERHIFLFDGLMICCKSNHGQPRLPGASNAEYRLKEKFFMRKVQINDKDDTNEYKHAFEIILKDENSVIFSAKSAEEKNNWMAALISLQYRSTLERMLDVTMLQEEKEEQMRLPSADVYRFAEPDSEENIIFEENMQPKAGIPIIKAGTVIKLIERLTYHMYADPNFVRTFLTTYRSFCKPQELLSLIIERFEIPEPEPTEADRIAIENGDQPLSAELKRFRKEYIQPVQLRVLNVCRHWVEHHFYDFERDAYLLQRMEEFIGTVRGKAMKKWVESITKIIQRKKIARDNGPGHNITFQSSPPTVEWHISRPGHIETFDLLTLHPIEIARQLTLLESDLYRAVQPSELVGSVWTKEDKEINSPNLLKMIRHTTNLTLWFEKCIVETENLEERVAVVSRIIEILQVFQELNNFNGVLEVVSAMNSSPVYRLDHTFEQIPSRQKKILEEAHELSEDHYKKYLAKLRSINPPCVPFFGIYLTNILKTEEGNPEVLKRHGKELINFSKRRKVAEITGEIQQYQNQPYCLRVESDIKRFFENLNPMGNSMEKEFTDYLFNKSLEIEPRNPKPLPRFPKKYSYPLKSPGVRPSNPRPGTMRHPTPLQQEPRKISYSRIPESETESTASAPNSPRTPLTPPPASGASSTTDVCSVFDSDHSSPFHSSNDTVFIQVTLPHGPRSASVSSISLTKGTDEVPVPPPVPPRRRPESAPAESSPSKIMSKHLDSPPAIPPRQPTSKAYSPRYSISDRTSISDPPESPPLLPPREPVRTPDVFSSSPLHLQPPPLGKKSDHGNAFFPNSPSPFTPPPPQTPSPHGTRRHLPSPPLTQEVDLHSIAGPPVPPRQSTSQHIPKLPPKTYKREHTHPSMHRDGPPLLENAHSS
Nature of the test: Binding affinity to GST-tagged human SOS1 (564 to 1049 residues) expressed in Escherichia coli BL21 (DE3) cells assessed as binary complex formation by measuring dissociation constant incubated for 15 mins by fluorescence polarization-based displacement assay.

For test [11], the target named is T1, von Hippel-Lindau disease tumor suppressor/Son of sevenless homolog 1 (Homo sapiens). The test is described as follows: PROTAC activity at VHL/SOS1 in human PANC-1 cells harboring KRAS G12D mutant assessed as induction of SOS1 degradation by measuring maximal efficacy at 1 to 2000 nM incubated for 24 hrs by Immunoblot analysis relative to control. The test is classed as cell-based. The settings on record: dose 1-2000 nM.

The target in test [12] is von Hippel-Lindau disease tumor suppressor/Son of sevenless homolog 1 (Homo sapiens, UniProt P40337+Q07889). The test is described as follows: PROTAC activity at VHL/SOS1 in human NCI-H358 cells assessed as induction of SOS1 protein degradation incubated for 24 hrs by Immunoblot analysis. The test is classed as cell-based.
Chain of von Hippel-Lindau disease tumor suppressor/Son of sevenless homolog 1 (P40337 whole entry, one chain of several): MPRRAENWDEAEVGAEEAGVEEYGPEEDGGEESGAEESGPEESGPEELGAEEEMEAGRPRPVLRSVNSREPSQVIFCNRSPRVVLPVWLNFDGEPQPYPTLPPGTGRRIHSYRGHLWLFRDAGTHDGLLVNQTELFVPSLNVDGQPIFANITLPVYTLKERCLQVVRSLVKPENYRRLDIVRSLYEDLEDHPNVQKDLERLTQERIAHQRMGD
For the next test, the system named is PANC-1. The test is described as follows: Antiproliferative activity against human PANC-1 cells harboring KRAS G12D mutant assessed as inhibition of cell proliferation incubated for 7 days by CellTiterGlo-3D proliferation assay. The test is classed as functional, cell-based. Particulars: PANC-1, 168 h.

Activity calls are given as the source filed them. The calls are words filed in the database; no cut-off is given here.

T1 sequence (P40337 whole entry, looked up, one chain of several): as the sequence (P40337 whole entry, one chain of several) above

The term Emax denotes the greatest response seen or fitted, relative to the assay's reference. One may read the Kd as a measure of binding affinity in units of concentration. The EC50 is the concentration needed to bring the measured effect to its halfway point. The term IC50 denotes the midpoint of a concentration-inhibition curve. As for `COc1cc2nc(C)nc(N[C@H](C)c3cc(N)cc(C(F)(F)F)c3)c2cc1C1CCN(C(=O)CCCCCC(=O)N[C@H](C(=O)N2C[C@H](O)C[C@H]2C(=O)N[C@@H](C)c2ccc(-c3scnc3C)cc2)C(C)(C)C)CC1`, the outcome in [1], in test [2] and in test [9] was inactive. The Emax in test [3], in test [6], in test [7], in [8] and in test [11] was over 95% in each case. Besides, the outcome in [4] and in [5] was Active. For the same molecule, the inhibition in vivo at 10 mg/kg with SW-620 was determined as 46.5%. The Kd in [10] was found to be 93 nM. Besides, the EC50 in [12] is 15.7 nM. In the test on PANC-1, the IC50 came out at 13.8 nM.
